The structures appear in SMILES notation. Like-named read-outs stand apart in the source and are kept apart here.

For assay [1], the target named is T1, M-3 receptor (Cavia porcellus, UniProt H0W1Z3).
T1 construct: from tissue; host or cells: guinea-pig myenteric plexus/longitudinal muscle strip
As to the kind of experiment: Functional selectivity, guinea-pig myenteric plexus/longitudinal muscle strip (methods of J. Med. Chem. (1987), 30, 969-975). The assay is classed as cell-based. The protocol: (§1) B. By the methods disclosed in J. Med. Chem. (1987), 30, 969-975 was determined the functional selectivity of compound (I): […]

For assay [2], the target named is T2, M-2 receptor (Cavia porcellus, UniProt H0VRN8).
T2 construct: from tissue; host or cells: guinea-pig atrium
T2 sequence (H0VRN8 1-466): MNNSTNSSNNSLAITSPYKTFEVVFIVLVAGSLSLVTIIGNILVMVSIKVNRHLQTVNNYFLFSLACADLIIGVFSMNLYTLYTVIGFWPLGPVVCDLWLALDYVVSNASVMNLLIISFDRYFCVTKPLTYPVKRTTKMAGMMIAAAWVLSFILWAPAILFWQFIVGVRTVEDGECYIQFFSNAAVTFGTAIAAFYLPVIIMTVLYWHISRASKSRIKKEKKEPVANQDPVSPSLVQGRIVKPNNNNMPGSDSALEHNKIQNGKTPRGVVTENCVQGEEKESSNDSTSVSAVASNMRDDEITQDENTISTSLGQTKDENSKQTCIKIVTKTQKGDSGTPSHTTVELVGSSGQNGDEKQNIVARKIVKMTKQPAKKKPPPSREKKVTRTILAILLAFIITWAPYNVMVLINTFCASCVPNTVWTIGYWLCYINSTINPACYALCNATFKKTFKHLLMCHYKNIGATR
As to the kind of experiment: Functional selectivity, guinea-pig atrium (methods of J. Med. Chem. (1987), 30, 969-975). The format is cell-based. The procedure:
as §1

In assay [3] the target is T3, M-1 receptor (Rattus norvegicus, UniProt P08482).
T3 construct: from tissue
T3 sequence (P08482 1-460): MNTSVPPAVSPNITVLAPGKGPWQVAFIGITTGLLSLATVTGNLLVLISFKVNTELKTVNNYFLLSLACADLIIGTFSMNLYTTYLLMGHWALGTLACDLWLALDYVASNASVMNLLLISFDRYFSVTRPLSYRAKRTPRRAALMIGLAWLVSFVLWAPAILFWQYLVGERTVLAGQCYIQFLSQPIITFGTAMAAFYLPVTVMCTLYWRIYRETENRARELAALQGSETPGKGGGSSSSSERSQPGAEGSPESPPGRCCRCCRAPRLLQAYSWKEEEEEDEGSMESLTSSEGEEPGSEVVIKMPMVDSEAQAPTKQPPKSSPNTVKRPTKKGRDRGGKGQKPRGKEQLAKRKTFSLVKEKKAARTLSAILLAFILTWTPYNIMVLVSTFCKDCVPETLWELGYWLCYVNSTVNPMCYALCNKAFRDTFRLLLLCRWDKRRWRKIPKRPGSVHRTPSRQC
As to the kind of experiment: Functional selectivity, rat superior cervical ganglion (methods of J. Med. Chem. (1987), 30, 969-975). The format is cell-based. To be noted: mean ± S.D. (n = 5). The protocol:
as §1

In assay [4] the target is muscarinic acetylcholine receptors. As to the kind of experiment: NMS/OXO-M displacement: [3H]NMS and [3H]OXO-M Kapp (method of Br. J. Pharmacol. (1988), 93, 437-445). The format is binding. Particulars: for Kd: Kapp = corrected dissociation constant allowing for ligand occupancy. The procedure: A. By the method disclosed in Br. J. Pharmacol. (1988), 93, 437-445 were determined the NMS/OXO-M data for the compound (I): [^3 H]NMS Kapp =0.025 μM; [^3 H]OXO-M Kapp =0.0017 μM; ratio NMS/OXO-M=15; (Kapp =corrected dissociation constant allowing for ligand occupancy).

The mark [5] stands for this setting: relative maximum, read-out: Rel. Max.

T1 sequence (H0W1Z3 1-590): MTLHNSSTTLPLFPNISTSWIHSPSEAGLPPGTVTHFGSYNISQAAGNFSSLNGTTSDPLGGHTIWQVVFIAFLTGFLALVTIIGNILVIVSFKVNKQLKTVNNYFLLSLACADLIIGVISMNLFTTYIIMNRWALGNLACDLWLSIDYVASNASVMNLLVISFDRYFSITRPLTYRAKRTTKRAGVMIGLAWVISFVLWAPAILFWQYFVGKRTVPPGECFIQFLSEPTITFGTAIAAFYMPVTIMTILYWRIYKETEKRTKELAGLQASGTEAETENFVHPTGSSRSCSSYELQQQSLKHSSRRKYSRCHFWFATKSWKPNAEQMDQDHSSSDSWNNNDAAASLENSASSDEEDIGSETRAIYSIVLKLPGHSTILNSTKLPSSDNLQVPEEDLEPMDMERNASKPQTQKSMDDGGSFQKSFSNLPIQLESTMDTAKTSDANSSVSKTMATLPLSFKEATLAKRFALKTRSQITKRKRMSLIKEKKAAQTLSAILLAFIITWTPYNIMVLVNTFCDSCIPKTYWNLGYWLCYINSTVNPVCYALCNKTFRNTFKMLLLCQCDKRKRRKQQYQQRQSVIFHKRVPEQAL

On to `C1CC1c1noc([C@H]2CN3CC[C@H]2C3)n1` [compound (I), (3R, 4R)-3-(3-cyclopropyl-1,2,4-oxadiazol-5-yl)-1-azabicyclo[2.2.1]heptane], for which the Kb is 7.08 nM in assay [1] (95% confidence limits 7.90-8.40, n = 12, slope of Arunlakshana-Schild plot not significantly different from unity, read-out: pA2 (converted)) and 10 nM in assay [2] (95% confidence limits 7.80-8.20, n = 10, slope of Arunlakshana-Schild plot not significantly different from unity, read-out: pA2 (converted)). In addition, the results for the Emax in assay [1] (setting [5]), in assay [2] (setting [5]) and in assay [3] (setting [5]) were 0%, 0% and 55 ± 10%, respectively. Besides, the response in assay [3] was half-maximal at 63.1 nM (EC50). For the same molecule, the Kd in assay [4] (radioligand [3H]NMS, read-out: [3H]NMS Kapp) was 25 nM; in assay [4] (radioligand [3H]OXO-M, read-out: [3H]OXO-M Kapp), 1.7 nM. Besides, the “ratio NMS/OXO-M” value in assay [4] (ratio of Kapp values) was determined as 15.

These data come from patent US5106853A, “Oxadiazole and its salts, their use in treating dementia” (Merck Sharp & Dohme, Ltd., priority 1989, dated 1992).
